Assay: DPPH (2,2-diphenyl-1-picrylhydrazyl) in vitro antioxidant / radical scavenging test
Format: biochemical
Settings: 517 nm; for Inhibition: radical scavenging inhibition of DPPH, vitamin C as reference
Procedure: A new polyfunctionalized pyridine 6′-(4-bromophenyl)-2′-ethoxy-3,4′-bipyridine-3′-carbonitrile (4) was investigated for its antioxidant activity by 2,2-diphenyl-1-picrylhydrazyl (DPPH) in vitro tests that employ vitamin C as the positive control. The product 4 magnitude estimated the antioxidant potential to vanish the DPPH radical distinctive colors at 517 nm. […] The radical scavenging inhibition was calculated using the following equation: […]

CCOc1nc(-c2ccc(Br)cc2)cc(-c2cccnc2)c1C#N [Product 4, 6′-(4-bromophenyl)-2′-ethoxy-3,4′-bipyridine-3′-carbonitrile]
antioxidant potential compared to vitamin C (DPPH in vitro test): high potential as an antioxidant
Inhibition: 48%

O=C1O[C@H]([C@@H](O)CO)C(O)=C1O [vit c, vitamin C, reference compound]
Inhibition: 74%

Source: patent publication US11919862B1, “6′-(4-bromophenyl)-2′-ethoxy-3,4′-bipyridine-3′-carbonitrile as an antioxidant” (KING FAISAL UNIVERSITY, priority 2023, dated 2024)
